One series deals with activated neutrophils. The experiment in a line: CCK-8 cytotoxicity. It counts as cell-based, mouse. The settings on record: CCK-8, 24 h, different dosages. The method, then:
(§1) The supernatant was discarded, and the red blood cells were lysed with RBC lysate. The neutrophils were then washed with PBS again, and the supernatant was discarded. The cells were resuspended in culture medium and used for further experiments. […]
Briefly, FTP-NPs were prepared by self-assembly of peptidic nanomaterials and adjusted to various concentrations (0, 50, 100, 200, 400, 800, 1000 μg/mL). […]
(§2) 10 minutes to remove unbound particles, and the supernatant was collected. […]
(§3) In vitro cytotoxicity assay
(§4) The CCK-8 assay was used to assess the cell viability of Hepa1-6/luc, resting neutrophils, and activated neutrophils. Following the seeding of 1*10^4 cells per well on a 96-well plate, the cells were subjected to different dosages of FTP-NPs and NFTP-NPs (medium: DMSO = 99:1 v/v). After 24 hours, the cells were incubated for two hours with 10 µL of CCK-8 solution. Finally, a microplate reader (Tecan Infinite M200, Switzerland) was used to measure cell viability based on the absorbance values.
(§5) Targeting the capability of NEBP
(§6) To evaluate the targeting capability of NE-binding peptide (NEBP), the harvested resting neutrophils and […]

Series [1] has as its system Hepa1-6/luc HCC xenograft. The experiment in a line: Subcutaneous Hepa1-6/luc tumor model, tumor growth. As to conditions: C57BL/6J mice, 300 µM in 200 µL i.v. five times every two days; aPD-1 200 µg i.p. every 4 days, 3 doses; n = 5. In kind it is in vivo, mouse. The method, then: (§7) Submitted to Advanced Science
(§8) Total RNA was extracted and purified using a miRNeasy Mini Kit (FOREGENE, China). Quantitative real-time polymerase chain reaction (qRT-PCR) was performed in triplicate in the ABI 7500 fast real-time PCR System (Applied Biosystems, USA). The mRNAs were normalized with 18s. The following primers were used for PCR detection: E-cadherin, N-cadherin, Vimentin, and α-catenin.
(§9) Western blot analysis was performed to evaluate the levels of relative proteins in Hepa1-6/luc cells and Neutrophils.38 To evaluate NETs release, the neutrophils were exposed to PMA, PMA+NFTP -NPs, and PMA+FTP-NPs for 12 h. Following treatment, the cells underwent three PBS washes for WB to measure the expression of CitH3 proteins (Cat. no. ab5103, Abcam, Cambridge, England , UK). Furthermore, to evaluate EMT of Hepa1-6/luc cells, the cells underwent three PBS washes for WB to measure the expression of E - cadherin (Abmart, China), N-cadherin (Abmart, China), Vimentin (Abmart, China) , and β-catenin (Abmart, […]
(§10) In vivo subcutaneously implanted tumor models
The C57BL/6J mice with subcutaneous Hepa1-6/luc xenografts (grew up to roughly 100 mm 3) were separated into four groups according to the different treatments to perform the in vivo tumor therapy. […] Throughout the experiment, the tumor volumes and body weight were measured once every four days. […]

The next series deals with resting neutrophils. The experiment in a line: CCK-8 cytotoxicity. The settings on record: CCK-8, 24 h, different dosages. In kind it is cell-based, mouse. The method, then: as §1, §2, §3, §4, §5, §6
The next series relates to C166 endothelial cells. The experiment in a line: Matrigel tube formation assay. In kind it is cell-based, mouse. As to conditions: 6 h, versus Control and NFTP-NPs groups. How it is done: Matrigel tube formation assay
Murine C166 endothelial cells (3×10^4cells/well) were placed on 96-well plates coated with Matrigel (356231, Corning, New York, USA) and incubated with various treatments. After incubation for six h, capillary-like structures were observed and counted under a microscope (Axiovert 200, Zeiss, Germany). All the experiments […]
In vitro permeability assays and trans-endothelial invasion assays
For in vitro permeability assays, C166 cells were treated with Resting neutrophils, Control, NFTP-NPs, FTP-NPs, and NEi groups for 48 h to form an endothelial monolayer, and then Evans Blue (PHYGENE, China) was added to the upper layer of the transwell filters (0.4 μm, Corning). […]
All the experiments were performed thrice. […]

In series [2] the test system is subcutaneous Hepa1-6/luc tumors. The experiment in a line: Immune profiling of tumors by flow cytometry, plasma cytokines by ELISA. The settings on record: tumor-bearing mice. It counts as in vivo, mouse. The method, then:
as §7, §8, §9, §10
The C57BL/6J mice with subcutaneous Hepa1-6/luc xenografts (grew up to roughly 100 mm 3) were separated into four groups according to the different treatments to perform the in vivo tumor therapy. PBS, NFTP-NPs, FTP-NPs, and NEi (300 µM in PBS: DMSO = 95:5, 200 µL) were administered intravenously (i.v.) five times every two days to mice. aPD-1 (BE0146, Bio X Cell, USA) was injected intraperitoneally into each mouse at 200μg once every 4 days for 3 doses. Throughout the experiment, the tumor volumes and body weight were measured once every four days. The formula tumor volume=length*1/2 width2 was used to get the tumor volume; at the same time, IVIS (AniView SE, Guangzhou Biolight Biotechnology Co., Ltd) was used to calculate bioluminescence signals in vivo. After therapy (day 20), major organs and blood samples were taken for histological and biochemical investigation as part of a safety assessment. […]
TNF-α, were measured using commercially available ELISA kits to assess the immune activation induced by […]

As to PpIX-GFFVLK-EAIPMSIPPEVK [FTP-NPs], in the series with activated neutrophils, the survival rate result is given as “over 95%”. For the same substance, the “tumor growth / increase in tumor volume” value in series [1] was “significant efficacy in suppressing tumor growth”. In addition, the survival rate entry with resting neutrophils is “over 95%”. Besides, the “number of tubular structures formed” value in the series with C166 endothelial cells was “significantly lower”. In addition, in series [2], the “plasma IL-6 level” value was “significantly higher”, the “plasma IL-10 level” value is on record as “decreased” and the “plasma TNF-α level” value is recorded as “significantly higher”.

Source of the values: PMC12767106, “In Situ Assembly of Transformable Monopeptide on Activated Neutrophils Attenuates NETs‐Induced Hepatocellular Carcinoma Metastasis by Disrupting NE Nuclear Translocation” (Advanced Science, 2025).
